Assay results as given in patent US12091426B2, “Bifunctional degraders of hematopoietic progenitor kinase and therapeutic uses thereof” (Nurix Therapeutics, Inc., priority 2021, dated 2024).

Target: T1, HPK1 (Homo sapiens, UniProt Q92918)
T1 construct: A HiBiT tag was introduced by CRISPR on the N terminus of HPK1 in Jurkat cells; host or cells: Jurkat cells (ATCC TIB-152), monoclonal line with CRISPR knock-in of HiBiT at the endogenous HPK1 locus
Experiment: HPK1 Cellular HiBit Degradation Assay
Type: cell-based
Conditions: HiBiT HPK1 Jurkat cells, 24 hrs; for DC50: concentration at which 50% of HPK1 was remaining, read-out: DC50 Category; for Dmax: Jurkat, maximum degradation vs DMSO vehicle control, read-out: Dmax Category
How it was run: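 Degraders are dosed in an 11-point series (10 uM to 0.1 nM final) onto Jurkat cells carrying an N-terminal HiBiT tag on endogenous HPK1. After 24 hrs at 37° C, lysis-based HiBiT luminescence quantifies remaining HPK1 relative to vehicle, and curve fitting gives DC50 and Dmax.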

T1 sequence (Q92918 whole entry): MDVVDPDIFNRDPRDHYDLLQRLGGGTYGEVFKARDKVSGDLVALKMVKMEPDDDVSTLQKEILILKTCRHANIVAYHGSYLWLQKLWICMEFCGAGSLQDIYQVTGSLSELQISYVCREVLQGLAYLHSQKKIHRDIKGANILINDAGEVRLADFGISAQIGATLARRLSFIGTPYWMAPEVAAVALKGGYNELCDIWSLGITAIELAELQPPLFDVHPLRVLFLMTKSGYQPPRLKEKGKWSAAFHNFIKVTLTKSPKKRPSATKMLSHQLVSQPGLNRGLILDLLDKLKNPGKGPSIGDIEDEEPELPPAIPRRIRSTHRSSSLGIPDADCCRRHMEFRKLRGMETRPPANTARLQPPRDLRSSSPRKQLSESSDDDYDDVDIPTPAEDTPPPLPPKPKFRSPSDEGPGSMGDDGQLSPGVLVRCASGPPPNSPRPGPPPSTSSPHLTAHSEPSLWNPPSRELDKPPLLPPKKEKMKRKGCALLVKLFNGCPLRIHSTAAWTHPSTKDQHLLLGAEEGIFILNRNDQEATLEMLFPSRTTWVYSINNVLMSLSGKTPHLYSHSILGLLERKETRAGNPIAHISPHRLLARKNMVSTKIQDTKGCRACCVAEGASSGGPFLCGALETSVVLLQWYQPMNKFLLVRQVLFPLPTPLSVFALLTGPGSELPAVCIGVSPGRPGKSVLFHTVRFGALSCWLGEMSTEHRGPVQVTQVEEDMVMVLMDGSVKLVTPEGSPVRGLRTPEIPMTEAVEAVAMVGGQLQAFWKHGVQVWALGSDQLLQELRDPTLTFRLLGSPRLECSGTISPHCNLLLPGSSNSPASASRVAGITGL

| Compound | DC50 [nM] | Dmax [%] |
| --- | --- | --- |
| CC(C)n1cnc2cc(-c3ccc4c(c3)N([C@H]3C[C@@H](N5CCCCC5)C3)C(=O)C43CCN(C(=O)C4CCN(C(=O)C5CCN(c6ccc(N7CCC(=O)NC7=O)cc6)CC5)CC4)CC3)nc(NC3CC3)c21 [Example 69, 1-(4-{4-[4-({6-[4-(cyclopropylamino)-3-(propan-2-yl)-3h-imidazo[4,5-c]pyridin-6-yl]-2-oxo-1-[(1S,3S)-3-(piperidin-1-yl)cyclobutyl]-1,2-dihydrospiro[indole-3,4′-piperidin]-1′-yl}carbonyl)piperidine-1-carbonyl]piperidin-1-yl}phenyl)-1,3-diazinane-2,4-dione] | < 100 | 70 to 85 |
| CC(C)n1cnc2cc(-c3ccc4c(c3)N([C@H]3C[C@@H](N5CCCCC5)C3)C(=O)C43CCN(C(=O)C4CCN(C(=O)C5CCN(c6ccc(N7CCC(=O)NC7=O)cc6)CC5)CC4)CC3)nc(Nc3ccccc3F)c21 [Example 70, 1-[4-(4-{4-[(6-{4-[(2-fluorophenyl)amino]-3-(propan-2-yl)-3H-imidazo[4,5-c]pyridin-6-yl}-2-oxo-1-[(1S,3S)-3-(piperidin-1-yl)cyclobutyl]-1,2-dihydrospiro[indole-3,4′-piperidin]-1′-yl)carbonyl]piperidine-1-carbonyl}piperidin-1-yl)phenyl]-1,3-diazinane-2,4-dione] | < 100 | > 85 |
| CC(C)n1cnc2cc(-c3ccc4c(c3)N([C@H]3C[C@@H](N5CCCCC5)C3)C(=O)C43CCN(C(=O)C4CCN(C(=O)C5CCN(c6ccc(N7CCC(=O)NC7=O)cc6)CC5)CC4)CC3)nc(Nc3ccncc3F)c21 [Example 71, 1-[4-(4-{4-[(6-{4-[(3-Fluoropyridin-4-yl)amino]-3-(propan-2-yl)-3H-imidazo[4,5-c]pyridin-6-yl}-2-oxo-1-[(1S,3S)-3-(piperidin-1-yl)cyclobutyl]-1,2-dihydrospiro[indole-3,4′-piperidin]-1′-yl)carbonyl]piperidine-1-carbonyl}piperidin-1-yl)phenyl]-1,3-diazinane-2,4-dione] | < 100 | 70 to 85 |
| CC(C)n1cnc2cc(-c3ccc4c(c3)N([C@H]3C[C@@H](N5CCCCC5)C3)C(=O)C43CCN(C(=O)C4CCN(C(=O)C5CCN(c6ccc(C7CCC(=O)NC7=O)cn6)CC5)CC4)CC3)nc(NC3CC3)c21 (stereo partly drawn) [Example 73, 3-(6-(4-(4-(6-(4-(cyclopropylamino)-3-isopropyl-3H-imidazo[4,5-c]pyridin-6-yl)-2-oxo-1-((1S,3S)-3-(piperidin-1-yl)cyclobutyl)spiro[indoline-3,4′-piperidine]-1′-carbonyl)piperidine-1-carbonyl)piperidin-1-yl)pyridin-3-yl)piperidine-2,6-dione] | 100 to 500 | 70 to 85 |
| CC(C)n1cnc2cc(-c3ccc4c(c3)N([C@H]3C[C@@H](N5CCCCC5)C3)C(=O)C43CCN(C(=O)C4CCN(C(=O)C5CCN(c6ccc(N7CCC(=O)NC7=O)cn6)CC5)CC4)CC3)nc(NC3CC3)c21 [Example 79, 1-(6-{4-[4-({6-[4-(cyclopropylamino)-3-(propan-2-yl)-3H-imidazo[4,5-c]pyridin-6-yl]-2-oxo-1-[(1S,3S)-3-(piperidin-1-yl)cyclobutyl]-1,2-dihydrospiro[indole-3,4′-piperidin]-1′-yl}carbonyl)piperidine-1-carbonyl]piperidin-1-yl}pyridin-3-yl)-1,3-diazinane-2,4-dione] | < 100 | 50 to 70 |
| CC(C)n1cnc2cc(-c3ccc4c(c3)N([C@H]3C[C@@H](N5CCCCC5)C3)C(=O)C43CCN(C(=O)C4CCN(C(=O)C5CCN(c6ccc(N7CCC(=O)NC7=O)cn6)CC5)CC4)CC3)nc(Nc3ccccc3F)c21 [Example 80, 1-[6-(4-{4-[(6-{4-[(2-fluorophenyl)amino]-3-(propan-2-yl)-3H-imidazo[4,5-c]pyridin-6-yl}-2-oxo-1-[(1S,3S)-3-(piperidin-1-yl)cyclobutyl]-1,2-dihydrospiro[indole-3,4′-piperidin]-1′-yl)carbonyl]piperidine-1-carbonyl}piperidin-1-yl)pyridin-3-yl]-1,3-diazinane-2,4-dione] | < 100 | 70 to 85 |
| CC(C)n1cnc2cc(-c3ccc4c(c3)N([C@H]3C[C@@H](N5CCCCC5)C3)C(=O)C43CCN(C(=O)C4CCN(C(=O)C5CCN(c6ccc(N7CCC(=O)NC7=O)cn6)CC5)CC4)CC3)nc(Nc3ccncc3F)c21 [Example 81, 1-[6-(4-{4-[(6-{4-[(3-Fluoropyridin-4-yl)amino]-3-(propan-2-yl)-3H-imidazo[4,5-c]pyridin-6-yl}-2-oxo-1-[(1S,3S)-3-(piperidin-1-yl)cyclobutyl]-1,2-dihydrospiro[indole-3,4′-piperidin]-1′-yl)carbonyl]piperidine-1-carbonyl}piperidin-1-yl)pyridin-3-yl]-1,3-diazinane-2,4-dione] | < 100 | 50 to 70 |
| CC(C)n1cnc2cc(-c3ccc4c(c3)N([C@H]3C[C@@H](N5CCCCC5)C3)C(=O)C43CCN(C(=O)C4CCN(C(=O)C5CCN(c6ccc(C7CCC(=O)NC7=O)nc6)CC5)CC4)CC3)nc(NC3CC3)c21 (stereo partly drawn) [Example 84, 3-(5-{4-[4-({6-[4-(cyclopropylamino)-3-(propan-2-yl)-3H-imidazo[4,5-c]pyridin-6-yl]-2-Oxo-1-[(1S,3S)-3-(piperidin-1-yl)cyclobutyl]-1,2-dihydrospiro[indole-3,4′-piperidin]-1′-yl}carbonyl)piperidine-1-carbonyl]piperidin-1-yl}pyridin-2-yl)piperidine-2,6-dione] | 100 to 500 | 50 to 70 |
| CC(C)n1cnc2cc(-c3ccc4c(c3)N([C@H]3C[C@@H](N5CCCCC5)C3)C(=O)C43CCN(C(=O)C4CCN(C(=O)C5CCN(c6ccc(C7CCC(=O)NC7=O)nc6)CC5)CC4)CC3)nc(Nc3ccccc3F)c21 (stereo partly drawn) [Example 85, 3-[5-(4-{4-[(6-{4-[(2-fluorophenyl)amino]-3-(propan-2-yl)-3H-imidazo[4,5-c]pyridin-6-yl}-2-oxo-1-[(1S,3S)-3-(piperidin-1-yl)cyclobutyl]-1,2-dihydrospiro[indole-3,4′-piperidin]-1′-yl)carbonyl]piperidine-1-carbonyl}piperidin-1-yl)pyridin-2-yl]piperidine-2,6-dione] | < 100 | 70 to 85 |
| CC(C)n1cnc2cc(-c3ccc4c(c3)N([C@H]3C[C@@H](N5CCCCC5)C3)C(=O)C43CCN(C(=O)C4CCN(C(=O)C5CCN(c6ncc(C7CCC(=O)NC7=O)cn6)CC5)CC4)CC3)nc(Nc3ccccc3F)c21 (stereo partly drawn) [Example 90, 3-(2-(4-(4-(6-(4-((2-fluorophenyl)amino)-3-isopropyl-3H-imidazo[4,5-c]pyridin-6-yl)-2-oxo-1-((1S,3S)-3-(piperidin-1-yl)cyclobutyl)spiro[indoline-3,4′-piperidine]-1′-carbonyl)piperidine-1-carbonyl)piperidin-1-yl)pyrimidin-5-yl)piperidine-2,6-dione] | < 100 | 70 to 85 |
| CC(C)n1cnc2cc(-c3ccc4c(c3)N([C@H]3C[C@@H](N5CCCCC5)C3)C(=O)C43CCN(C(=O)C4CCN(C(=O)CC5CCN(c6ccc(C7CCC(=O)NC7=O)cn6)CC5)CC4)CC3)nc(Nc3ccccc3F)c21 (stereo partly drawn) [Example 92, 3-(6-(4-(2-(4-(6-(4-((2-fluorophenyl)amino)-3-isopropyl-3H-imidazo[4,5-c]pyridin-6-yl)-2-oxo-1-((1S,3S)-3-(piperidin-1-yl)cyclobutyl)spiro[indoline-3,4′-piperidine]-1′-carbonyl)piperidin-1-yl)-2-oxoethyl)piperidin-1-yl)pyridin-3-yl)piperidine-2,6-dione] | < 100 | 70 to 85 |
| CC(C)n1cnc2cc(-c3ccc4c(c3)N([C@H]3C[C@@H](N5CCCCC5)C3)C(=O)C43CCN(C(=O)C4(C)CCN(C(=O)[C@H]5CC[C@H](Oc6ccc(N7CCC(=O)NC7=O)cn6)CC5)CC4)CC3)nc(Nc3ccccc3F)c21 [Example 108, 1-(6-{[(1R,4R)-4-{4-[(6-{4-[(2-fluorophenyl)amino]-3-(propan-2-yl)-3H-imidazo[4,5-c]pyridin-6-yl}-2-oxo-1-[(1S,3S)-3-(piperidin-1-yl)cyclobutyl]-1,2-dihydrospiro[indole-3,4′-piperidin]-1′-yl)carbonyl]-4-methylpiperidine-1-carbonyl}cyclohexyl]oxy}pyridin-3-yl)-1,3-diazinane-2,4-dione] | < 100 | 70 to 85 |
| CC(C)n1cnc2cc(-c3ccc4c(c3)N([C@H]3C[C@@H](N5CCCCC5)C3)C(=O)C43CCN(C(=O)C4(C)CCN(C(=O)[C@H]5CC[C@H](Oc6ccc(N7CCC(=O)NC7=O)cn6)CC5)CC4)CC3)nc(Nc3ccncc3F)c21 [Example 109, 1-(6-{[(1R,4R)-4-{4-[(6-{4-[(3-Fluoropyridin-4-yl)amino]-3-(propan-2-yl)-3H-imidazo[4,5-c]pyridin-6-yl}-2-oxo-1-[(1S,3S)-3-(piperidin-1-yl)cyclobutyl]-1,2-dihydrospiro[indole-3,4′-piperidin]-1′-yl)carbonyl]-4-methylpiperidine-1-carbonyl}cyclohexyl]oxy}pyridin-3-yl)-1,3-diazinane-2,4-dione] | 100 to 500 | 50 to 70 |
| CC(C)n1cnc2cc(-c3ccc4c(c3)N([C@H]3C[C@@H](N5CCCCC5)C3)C(=O)C43CCN(C(=O)C4(C)CCN(C(=O)C5CCN(c6ccc(N7CCC(=O)NC7=O)cn6)CC5)CC4)CC3)nc(NC3CC3)c21 [Example 115, 1-(6-{4-[4-({6-[4-(cyclopropylamino)-3-(propan-2-yl)-3H-imidazo[4,5-c]pyridin-6-yl]-2-oxo-1-[(1S,3S)-3-(piperidin-1-yl)cyclobutyl]-1,2-dihydrospiro[indole-3,4′-piperidin]-1′-yl}carbonyl)-4-methylpiperidine-1-carbonyl]piperidin-1-yl}pyridin-3-yl)-1,3-diazinane-2,4-dione] | < 100 | 70 to 85 |
